Test results as given in patent US9493500B2, “Fluorinated pyrimidine analogs and methods of use thereof” (priority 2012, dated 2016).
Like-named read-outs stand apart in the source and are kept apart here. Blank lines part the entries; values can stand above or below the molecule they belong to.

Tests used:
[1] = test system: myelodysplatic syndrome (MDS); settings: treated patients with MDS; cited from earlier work
[2] = test system: various tumor cells lines, both solid and hematologic; settings: available data; cited from earlier work
[3] = following subcutaneous administration; cited from earlier work
cytidine deaminase = cytidine deaminase (Homo sapiens, UniProt P32320); settings: deamination of the base to inactive uracil; cited from earlier work
[4] = test system: various tumor cells lines, both solid and hematologic; assay: Cytotoxicity against various tumor cell lines (overall comparison); assay type: cell-based
[5] = test system: DNA methyltransferase (DNMT); assay: In vitro DNA methyltransferase inhibition in HCT-116 cells (EpiQuick kit); assay type: cell-based
Experimental: The assay was performed using the EpiQuick DNA Methyltransferase Activity/Inhibition Assay Kit (Epigentek, Brooklyn, N.Y.). The […] cells were incubated with 1 μM and 10 μM concentrations of each drug for a period of 24 hours.

MDA-MB-231 = assay: In vitro cytotoxicity (GI50), breast cancer cell line; assay type: cell-based
Experimental: (§1) The in vitro cytotoxicity was measured in the following cell lines: NCI-H460 (ATCC #HTB-177) (non-small cell lung), HCT-116 (ATCC #CCL-247) (colorectal), HL-60 (ATCC #CCL-240) (leukemia), and MDA-MB-231 (ATCC #HTB-26) (breast).

HCT-116 = assay: In vitro cytotoxicity (GI50), colon/colorectal cell line; assay type: cell-based
Experimental: as §1

NCI-H460 = assay: In vitro cytotoxicity (GI50), non-small cell lung cell line; assay type: cell-based
Experimental: as §1

L1210 [6] = assay: In vitro cytotoxicity, leukemia cell line L1210; settings: read-out: In vitro cytotoxicity, Leukemia L1210; Table 3
L1210 [7] = test system: L1210

cytidine deaminase, sequence (P32320 whole entry, species assumed): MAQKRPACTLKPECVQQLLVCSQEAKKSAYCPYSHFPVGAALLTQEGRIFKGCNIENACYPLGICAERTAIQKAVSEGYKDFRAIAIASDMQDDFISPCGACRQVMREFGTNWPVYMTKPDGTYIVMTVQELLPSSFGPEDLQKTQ

SMILES: Nc1ncn([C@@H]2O[C@H](CO)[C@@H](O)[C@H]2O)c(=O)n1 [Azacytidine, 5-azacytidine]
Remissions or clinical improvements [1]: remissions or clinical improvements in more than half of the treated patients

SMILES: NC1=NC(=O)N([C@H]2C[C@H](O)[C@@H](CO)O2)CN1 [DHADC, 5,6-dihydro-5-aza-2′-deoxycytidine]
Cytotoxicity compared to decitabine [2]: lesser cytotoxicity

SMILES: Nc1ncn([C@H]2C[C@H](O)[C@@H](CO)O2)c(=O)n1 [Decitabine, 5-azadeoxycytidine]
Half-life [3]: 30 min
Remissions or clinical improvements [1]: remissions or clinical improvements in more than half of the treated patients
Substrate for cytidine deaminase (cytidine deaminase): good substrates for cytidine deaminase

SMILES: Nc1ncn([C@@H]2O[C@H](CO)[C@@H](O)C2(F)F)c(=O)n1 [NUC013, 2′,2′-difluoro-5-azadeoxycytidine]
Cytotoxicity profile (in words) [4]: active against cell lines that are resistant to decitabine
DNA methyltransferase inhibition (conclusion in words) [5]: is an inhibitor of DNA methyltransferase

SMILES: NC1=NC(=O)N([C@@H]2O[C@H](CO)[C@@H](O)C2(F)F)CN1 [NUC014, 2′,2′-difluoro-5,6-dihydro-5-azadeoxycytidine]
Cytotoxicity profile (in words) [4]: less cytotoxic than NUC013

SMILES: O=c1ncccn1[C@@H]1O[C@H](CO)[C@@H](O)C1(F)F [NUC019, 2′-deoxy-2′,2′-difluorozebularine]
IC50 (MDA-MB-231; Table 3, read-out: In vitro cytotoxicity, Breast MDA-MB-231): 166 µM
IC50 (HCT-116; Table 3, read-out: In vitro cytotoxicity, Colon HCT-116): 310 µM
IC50 (NCI-H460; Table 3, read-out: In vitro cytotoxicity, NSCL NCI-H460): 136 µM
IC50 (L1210 [6]): 321 µM

IC50 (L1210 [7]): 346 µM
SMILES: O=c1ncccn1[C@H]1O[C@H](CO)[C@@H](O)C1(F)F [NUC020]
IC50 (MDA-MB-231): 213 µM
IC50 (HCT-116): 279 µM
IC50 (NCI-H460): 136 µM
